Results: patent publication US4959373A, “Bispidine derivatives as class III antiarrhythmic agents” (BASF Aktiengesellschaft, priority 1987, dated 1990)
Counter-ions that a name gives are not always drawn.

Test system: QT interval
Test: Antiarrhythmic Class III action in guinea pigs after intravenous administration (QT interval prolongation in the ECG)
Assay type: in vivo, Pirbright white guinea pigs
Details: Cavia porcellus, anesthetized with urethane, ED 20% from linear relationship between log dose and relative QT prolongation (Δ%)
Method: The experimental animals used are male and female Pirbright white guinea pigs weighing from 300 to 500 g. Anesthesia is effected with 1.5 g/kg of urethane administered intraperitoneally. The substances are administered intravenously. To measure the ECG conduction times and the heart rate, the II. limb lead is recorded. The relevant parameters are the QT and PQ intervals and the heart rate. From 4 to 6 animals are used per dose. The criterion for Class III action is an increase in the QT interval compared with the values prior to administration of the substance. An increase in the PQ interval and a sharp decrease in the heart rate serve as exclusion criteria. The ED 20% is calculated from the linear relationship between log dose (mg/kg) of the substance and the relative prolongation of the QT interval (Δ%).

Structure (SMILES)	ED (20%)
Nc1ccc(C(=O)N2CC3CC(CN(Cc4ccccc4)C3)C2)cc1 [Ambasilide, reference compound]	6.3 mg/kg
CC(C)NC[C@@H](O)c1ccc(NS(C)(=O)=O)cc1 [D-sotalol, reference compound]	3.6 mg/kg
O=C(c1ccc(Cl)cc1)N1CC2CC(CN(Cc3ccccc3)C2)C1 [Example 2, 7-benzyl-3-(4-chlorobenzoyl)-3,7-diazabicyclo[3.3.1]nonyl hydrochloride]	4.6 mg/kg
Cc1ccc(NC(=O)N2CC3CC(CN(Cc4ccccc4)C3)C2)cc1 [Example 21, 7-Benzyl-3-(4-methylphenylcarbamyl)-3,7-diazabicyclo[3.3.1]nonane]	2.6 mg/kg
O=C(Nc1ccc(Cl)cc1)N1CC2CC(CN(Cc3ccccc3)C2)C1 [Example 23, 7-Benzyl-3-(4-chlorophenylcarbamyl)-3,7-diazabicyclo[3.3.1]nonane]	2.4 mg/kg
O=C(Nc1ccccc1)N1CC2CC(CN(Cc3ccc(Cl)cc3)C2)C1 [Example 26, 3-(Phenylcarbamyl)-7-(4-chlorobenzyl)-3,7-diazabicyclo[3.3.1]nonane]	3.6 mg/kg
